Counter-ions that a name gives are not always drawn.
Assays:
[1] = system: Purkinje fiber of the right ventricular free wall; assay: Influence on Myocardial Action Potential Duration Time (APD75); format: cell-based, hybrid adult dog; settings: Canis lupus familiaris, 20 min, 20 minutes' incubation, 1 Hz, 37° C.; for percent prolongation of action potential duration (APD75) at 1 µg/mL: Dose 1.0 (μg, ml); for percent prolongation of action potential duration (APD75) at 3 µg/mL: Dose 3.0 (μg, ml); for percent prolongation of action potential duration (APD75) at 10 µg/mL: Dose 10.0 (μg, ml)
Method: To a hybrid adult dog, 30 mg/kg of pentobarbital was administered through a vein, and after being anesthetized, the heart was removed. Afterward, the right ventricular free wall of the heart was cut and taken out in a Tyrode solution.
The taken right ventricular free wall was fixed in an incubator at 37° C., and a nutritional solution (20 ml of the Tyrode solution) was refluxed.
In this isolated condition, myocardial action potential duration times (APD75) were measured before and after the administration of the respective compounds prepared in the above examples in Table A and d-sotalol as a control medicine, and APD75 (%) was calculated from the measured results in accordance with the formula: […]
A: APD75 before administration
B: APD75 after administration
Here, APD75 was measured as follows: A field stimulation of 1 Hz was given to the right ventricular free wall, and any variation of an action potential was depicted on an oscilloscope via a glass microelectrode (10 to 20 M.OMEGA.) thrust into a Purkinje fiber of the free wall and via an amplifier. Afterward, a waveform on the oscilloscope was analyzed by the use of a computer, and the time of from a point of the action potential generation to a point of 75% repolarization was measured. This measured time was regarded as the myocardial action potential duration time (APD75).
The compounds and d-sotalol shown in Table A were separately added to the refluxing nutritional solution (20 ml), and after 20 minutes' incubation, APD75 after the administration was calculated from the variation of the myocardial action potential duration time.
Incidentally, this test was carried out in accordance with a Sato et al's method [H. Sato, K. Hashimoto, Arzneimeittel Forschung, 34 (1), 3a, 376-380 (1984)].

[2] = system: ventricular muscle (right ventricle); assay: Influence on Ventricular Muscle Refractory Period (ERP); format: in vivo, mongrel adult dog; settings: Canis lupus familiaris, iv, anesthetized dog, read-out: ERP (%; extensibility of refractory period); for change in vivo at 0.1 mg/kg: Dose 0.1 mg/kg i.v.; for change in vivo at 0.3 mg/kg: Dose 0.3 mg/kg i.v.; for change in vivo at 1 mg/kg: Dose 1.0 mg/kg i.v.; for change in vivo at 3 mg/kg: Dose 3.0 mg/kg i.v.
Method: Refractory periods were measured in the following manner before and after each of the compounds and d-sotalol shown an Table A was separately administered to a vein or a duodenum, and ERP (%; extensibility of refractory period) was calculated from the measured values in accordance with the following formula: […]
W: Refractory period after administration
Y: Refractory period before administration
To a mongrel adult dog, 30 mg/kg of pentobarbital was administered intravenously, and after being anesthetized, a pair of silver-silver chloride electrodes separated by 3 mm was sewn on an opened right ventricule, and electrical stimulation was given at an interval of 400 msec at a duration time of 4 msec under a current twice as much as the threshold. Afterward, a small amount of alcohol was injected into a sinus artery in order to extinguish a pacemaker activity, and the ventricular refractory period (ERP) was measured under ventricule pacing.
That is, 1 train comprised 10 stimulations, and an interval between two of the trains was usually 400 msec. At the time of the refractory period measurement, however, the above interval was shortened every 10 smec, and the interval between the trains at the time when reaction to the first stimulation of the train disappeared was regarded as the refractory period.
In this case, the electrical stimulation was fed in accordance with a program by a heart stimulation device (Diamedical Co., Ltd.; DHM-226-3).

Row | Structure (SMILES) | percent prolongation of action potential duration (APD75) at 1 µg/mL [1] [%] | percent prolongation of action potential duration (APD75) at 3 µg/mL [1] [%] | percent prolongation of action potential duration (APD75) at 10 µg/mL [1] [%] | change in vivo at 0.1 mg/kg [2] [%] | change in vivo at 0.3 mg/kg [2] [%] | change in vivo at 1 mg/kg [2] [%] | change in vivo at 3 mg/kg [2] [%]
1 | Cn1c(N2CCN(CCCOc3ccc(F)cc3)CC2)cc(=O)n(C)c1=O [Compound 1, 1,3-dimethyl-6-[4-(3-[4-fluorophenoxy]propyl)piperazin-1-yl]-2,4(1H,3H)-pyrimidinedione.hydrochloride] | 17 | 22 | 30 | 6 | 12 | 15.8 | 24.3
2 | Cn1c(N2CCN(CCCOc3ccc(C(=O)c4ccccc4)cc3)CC2)cc(=O)n(C)c1=O [Compound 9] | 6 | 21 | 30 | 5.6 | 5.6 | 11.1 | 16.7
3 | Cn1c(N2CCN(CCCOc3cccc(C#N)c3)CC2)cc(=O)n(C)c1=O [Compound 12] | 4 | 11 | 28 | 0 | 2.1 | 4.3 | 17
4 | Cn1c(N2CCN(CCCOc3ccccc3C#N)CC2)cc(=O)n(C)c1=O [Compound 16] | 6 | 14 | 23 | 0 | 0 | 6.7 | 10
5 | CC(=O)c1ccccc1OCCCN1CCN(c2cc(=O)n(C)c(=O)n2C)CC1 [Compound 17, 1,3-dimethyl-6-[4-(3-[2-acetylphenoxy)propyl)piperazin-1-yl]-2,4(1H,3H)-pyrimidinedione] | 28 | 43 | 59 | 3.5 | 8.3 | 13.5 | 17.3
6 | CC(=O)Nc1ccccc1OCCCN1CCN(c2cc(=O)n(C)c(=O)n2C)CC1 [Compound 18] | – | 11 | 22 | – | 6.3 | 12.5 | –
7 | Cn1c(N2CCN(CCCOc3ccccc3C(=O)C3CCCC3)CC2)cc(=O)n(C)c1=O [Compound 39] | – | 26 | 48 | – | – | – | –
8 | Cn1c(N2CCN(CCCOc3ccc(Cl)cc3C(=O)c3ccccn3)CC2)cc(=O)n(C)c1=O [Compound 52] | 9 | 14 | 18 | – | – | – | –
9 | Cn1c(N2CCN(CCCOc3ccc(C(=O)c4ccccc4)cc3F)CC2)cc(=O)n(C)c1=O [Compound 58] | 19 | 29 | 36 | – | – | – | –
10 | Cn1c(NCCN(CCO)CCCc2ccccc2)cc(=O)n(C)c1=O [Compound 120, 1,3-dimethyl-6-[2-(N-[2-hydroxyethyl]-3-phenylpropylamino)ethylamino]-2,4(1H,3H)-pyrimidinedione.oxalate] | 6 | 14 | 26 | – | – | – | –
11 | CCN(CCCc1ccccc1)CCNc1cc(=O)n(C)c(=O)n1C [Compound 121, 1,3-dimethyl-6-[2-(N-ethyl-3-phenylpropylamino)ethylamino]-2,4(1H,3H)-pyrimidinedione.oxalate] | 9 | 14 | 16 | – | – | – | –

— patent publication US5332739A, “Pyrimidinedione derivatives and antiarrhythmic agents containing same” (Mitsui Toatsu Chemicals, Incorporated, priority 1990, dated 1994)
